For 2 compounds, EC50 results are on record in publication PMC10907609, “Structural and functional characterization of the endogenous agonist for orphan receptor GPR3” (Cell Research, 2024).

In test [1] the target is T1, GPR3 (Homo sapiens, UniProt P46089). In words: cryo-EM structure ([…] Å), SPR, MS of co-purified ligand; GTP turnover on purified complex; EC50 from cell-based cAMP Glo-Sensor assay. The arrangement: GPR3–Gs–scFv16 complex; with Gs heterotrimer (scFv16-stabilised).
Target sequence in this assay (P46089 whole entry): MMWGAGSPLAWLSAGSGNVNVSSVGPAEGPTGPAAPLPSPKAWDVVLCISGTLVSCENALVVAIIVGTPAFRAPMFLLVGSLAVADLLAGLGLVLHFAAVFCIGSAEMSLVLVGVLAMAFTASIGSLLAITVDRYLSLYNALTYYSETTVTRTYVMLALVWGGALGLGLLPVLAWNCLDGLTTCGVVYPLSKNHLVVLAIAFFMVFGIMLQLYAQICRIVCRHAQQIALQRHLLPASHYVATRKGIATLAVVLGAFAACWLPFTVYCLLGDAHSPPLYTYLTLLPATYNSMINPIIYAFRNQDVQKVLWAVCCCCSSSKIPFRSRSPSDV
Target sequence in this assay (P63092 2-394 partner): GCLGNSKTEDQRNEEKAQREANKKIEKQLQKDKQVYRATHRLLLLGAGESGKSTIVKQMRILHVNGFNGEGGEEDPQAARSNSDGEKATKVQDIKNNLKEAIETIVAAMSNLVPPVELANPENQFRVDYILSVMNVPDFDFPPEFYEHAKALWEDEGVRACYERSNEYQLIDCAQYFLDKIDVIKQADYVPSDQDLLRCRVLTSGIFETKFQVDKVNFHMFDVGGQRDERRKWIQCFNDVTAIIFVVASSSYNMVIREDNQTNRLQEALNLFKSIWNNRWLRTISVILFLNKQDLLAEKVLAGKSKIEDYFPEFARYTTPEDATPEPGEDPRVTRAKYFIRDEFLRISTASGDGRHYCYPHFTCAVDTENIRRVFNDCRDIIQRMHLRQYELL
Target sequence in this assay (P62873 2-340 partner): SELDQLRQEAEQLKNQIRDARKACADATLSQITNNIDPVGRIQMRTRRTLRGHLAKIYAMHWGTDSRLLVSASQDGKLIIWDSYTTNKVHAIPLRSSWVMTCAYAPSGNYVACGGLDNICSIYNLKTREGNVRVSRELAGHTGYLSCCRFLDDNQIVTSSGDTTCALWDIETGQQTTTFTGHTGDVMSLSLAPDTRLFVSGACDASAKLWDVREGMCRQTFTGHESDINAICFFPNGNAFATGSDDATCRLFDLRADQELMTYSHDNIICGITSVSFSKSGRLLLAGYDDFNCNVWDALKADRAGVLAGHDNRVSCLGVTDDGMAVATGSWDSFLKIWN
Target sequence in this assay (P59768 2-68 partner): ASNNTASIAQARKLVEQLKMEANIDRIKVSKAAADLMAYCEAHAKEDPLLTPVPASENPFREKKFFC
The target of test [2] is T1, GPR3. In words: cell-based cAMP Glo-Sensor assay (no significant activity in purified GTP turnover assay).
Target sequence in this assay (P46089 whole entry): as the sequence (P46089 whole entry) above

Each structure is given as a SMILES string.

The term EC50 denotes the concentration that produces a half-maximal response. `CCCCCCCC/C=C\CCCCCCCC(=O)NCCO` [OEA, oleoylethanolamide]: the EC50 at GPR3 [1] stood at 2.5 µM.

Compound `CCCCCCCC/C=C\CCCCCCCC(N)=O` [oleamide] registered a 50% effective concentration (EC50) on GPR3 [2] of 5.6 µM.
